Paper PMC11585928, “Screening the Global Health Priority Box against Plasmodium berghei liver stage parasites using an inexpensive luciferase detection protocol” (Malaria Journal, 2024)

Tests used:
[1] = tested on: P. berghei liver stage schizonts; assay: microbe, parasite or virus in culture; assay type: cell-based; conditions: Plasmodium berghei, HepG2, 44 h, read-out: High Content Imaging (pEC50 ± SD) (converted)
Method: (§1) HepG2 seeding (1.75 × 10^4 cells/well), salivary gland dissection, sporozoite quantification, and sporozoite dilution were performed as described above. To test the titration of sporozoite in dose–response format with MMV390048, 20 µL of a 25 sporozoite/μL solution in HepG2 media was added to columns 1–8 of 384-well plates (inoculum of 500 sporozoites/well), 20 μL of 50 sporozoites/μL was added into columns 9–16 (inoculum of 1000 sporozoites/well), and 20 μL of 100 sporozoites/μL was added into columns 17–24 (inoculum of 2000 sporozoites/well). To test legacy anti-malarials, two independent experiments were performed for each endpoint (FLAR or HCI), each with an independent production run of P. berghei sporozoites. […] Infected plates were spun for 5 min at 200 RCF and kept for 3 h at 37 °C and 5% CO2 prior to compound treatment.
(§2) Compound treatment was performed as previously described. Dose–response source plates containing 5 μL of 1000 × test compounds in a serial dilution in DMSO were prepared in low volume 384-well plates using a Biomek 4000 (Beckman Coulter). Assay plates were treated by transferring 40 nL from screening or dose–response source plates using a pin tool (V&P Scientific) affixed to a Biomek NXp, resulting in a final test concentration of 1 × in media.
After 44 h, dose–response plates designated for the FLAR endpoint underwent the freeze/thaw lysis method before detection with 1 × FLAR completed with 1 × D-luciferin and ATP endpoint described above. Plates designated for the HCI endpoint were fixed with 4% paraformaldehyde (Thermo Scientific, cat 043368.9 M) in PBS for 20 min. Following fixation, the plate was washed twice by adding and then dumping 20 µL of PBS/well. Plates were then stained with 50 ng/mL of mouse anti-Plasmodium glyceraldehyde 3-phosphate dehydrogenase (GAPDH) (European Malaria Reagent Repository, cat 13.3) diluted in a 0.3% Triton X and 1% BSA permeabilization and blocking stain buffer overnight at 4 °C. Following three washes with PBS, plates were stained with 2 µg/mL of goat anti-mouse AlexaFluor 488 (Invitrogen, cat A11001) diluted in stain buffer and again incubated overnight at 4 °C. Following three washes with PBS, plates were counterstained with 10 µg/mL Hoechst 33342 (Invitrogen, cat H21492) for 30 min before two washes. Plates were imaged on an ImageXpress Micro Confocal high content system (Molecular Devices). Raw values (either parasite growth area for HCI or Relative Light Units (RLU) for FLAR) were normalized to the positive (MMV390048) or negative (DMSO) controls using the equation: %Inhibition=100×RawData-AverageNegativeControl/AveragePositiveControl-AverageNegativeControl and curve fitting was performed with CDD Vault using the Levenberg–Marquardt algorithm. Potency data from all plates were collected, visualized, and analysed using GraphPad Prism (Version 10.0.3). Potency values for legacy anti-malarials obtained from our FLAR endpoint were compared to those previously reported from a 1536-well plate format using a Bright-Glo™ luciferase detection protocol.

[2] = tested on: luciferase-expressing P. berghei liver stage schizonts; assay: P. berghei liver stage dose-response assay in HepG2, FLAR luciferase endpoint (legacy anti-malarials); assay type: cell-based; conditions: Plasmodium berghei, HepG2, 44 h, read-out: FLAR (pEC50 ± SD) (converted)
Method: All stock reagents were stored at 4 °C, except D-luciferin, ATP, and DTT which were aliquoted and stored at − 20 °C. Tricine, MgSO4, and MgCO3 stocks were all adjusted to have a pH of 7.8.
as §1, with “To” for “HepG2 seeding (1.75 × 10^4 cells/well), salivary gland dissection, sporozoite quantification, and sporozoite dilution were performed as described above. To”
as §2
After 44 h, dose–response plates designated for the FLAR endpoint underwent the freeze/thaw lysis method before detection with 1 × FLAR completed with 1 × D-luciferin and ATP endpoint described above. […] Following fixation, the plate was washed twice by adding and then dumping 20 µL of PBS/well. […] Plates were imaged on an ImageXpress Micro Confocal high content system (Molecular Devices). Raw values (either parasite growth area for HCI or Relative Light Units (RLU) for FLAR) were normalized to the positive (MMV390048) or negative (DMSO) controls using the equation: %Inhibition=100×RawData-AverageNegativeControl/AveragePositiveControl-AverageNegativeControl and curve fitting was performed with CDD Vault using the Levenberg–Marquardt algorithm. Potency data from all plates were collected, visualized, and analysed using GraphPad Prism (Version 10.0.3). Potency values for legacy anti-malarials obtained from our FLAR endpoint were compared to those previously reported from a 1536-well plate format using a Bright-Glo™ luciferase detection protocol.

[3] = tested on: P. berghei liver schizonts; assay: GHPB single point primary screen, FLAR luciferase endpoint; assay type: cell-based, Plasmodium berghei; conditions: 1 µM
Method: The GHPB is an open-access collection of compounds (80 for vector control, 80 for zoonotic and neglected diseases, 80 for drug resistant malaria) obtained from MMV. The library was supplied in a 96-well microtitre plate and moved into a low-volume 384-well plate (Greiner Bio-One, cat 784,261) using a Biomek NXp to transfer 5 μL of 1 mM compound into the destination wells. MMV390048 (1 µM) was used for the positive control wells and DMSO (0.1% v/v) was used for the negative control wells. The GHPB was screened by seeding 5 × 10^3 cells/well which, after 24 h, were infected with a maximum available inoculum of 1.44 × 10^3 sporozoites/well. Three hours post-infection, plates were treated with a pin tool as described above. After 44 h, media was dumped from the plate, lysed using the freeze/thaw method, and luciferase signal was detected with 1 × FLAR as described above.

HepG2 cells = assay: HepG2 cytotoxicity assay in galactose media, 72 h, hepatic nuclei count by HCI; assay type: cell-based, Homo sapiens
Method: To assess the general cytotoxicity of GHPB compounds, HepG2 cells were cultured in media containing galactose instead of glucose to avoid false negatives due to the Crabtree effect. Following propagation of HepG2 in T-75 flasks with glucose-containing media as above, media was aspirated, the cell monolayer was washed with PBS, and then cells were trypsinized as above. Released cells were then resuspended in media containing glucose-free DMEM (Gibco, cat 11,966–025) supplemented with 10% FBS (Corning, cat 35–016-CV), 10 mM galactose (Sigma, cat G5388), 1 mM sodium pyruvate (Corning, cat 25–000-CI), 1 × penicillin–streptomycin-neomycin mix (Gibco, cat 15,640–055), and 2 mM L-glutamine (Gibco, cat 25,030–081). The cell density was calculated using trypan blue exclusion on a haemocytometer, diluted to 50 cells/µL, and 40 µL of cells were seeded into collagen-coated 384-well plates (Greiner Bio-One, cat 781,956) using a Biomek NXp (Beckman Coulter), resulting in 2 × 10^3 cells/well. The day after seeding, plates were treated with a pin tool as above and cultured for 72 h. Plates were then fixed with 4% paraformaldehyde, stained with 10 µg/mL Hoechst 33,342, and imaged on an ImageXpress Micro Confocal. Hepatic nuclei were quantified using MetaXpress (Molecular Devices) image analysis software. Both P. berghei liver schizont and HepG2 cytotoxicity data were loaded into CDD Vault for normalization and hit selection as described above. A total of 35 compounds were identified for resupply of fresh powder for confirmation in dose–response assays. […] Powders were diluted to 50 mM in DMSO and plated in 1000 × source plates as described above. […] Separately, two independent runs of the HepG2 cultured in galactose, assayed as described above, were used to assess the cytotoxicity potency and selectivity indices for these compounds. […] Receiver-operator characteristic (ROC) curves were generated using Graphpad Prism and area under the curve (AUC) was calculated using the Wilson/Brown method for both P. berghei liver schizont activity and HepG2 cytotoxicity.

[4] = molecular target: P. berghei liver schizonts; assay: GHPB dose-response confirmation, FLAR luciferase endpoint; assay type: cell-based, Plasmodium berghei
Method: A total of 35 compounds were identified for resupply of fresh powder for confirmation in dose–response assays. […] Powders were diluted to 50 mM in DMSO and plated in 1000 × source plates as described above. MMV390048 and puromycin were plated as the positive control for P. berghei liver schizont activity and cytotoxicity, respectively. Two independent experiments using 1 × FLAR and 5 × 10^3 cells/well were performed to assess the potency of these compounds against P. berghei liver schizonts, each with an independent production run of P. berghei sporozoites. […] Separately, two independent runs of the HepG2 cultured in galactose, assayed as described above, were used to assess the cytotoxicity potency and selectivity indices for these compounds. Both P. berghei liver schizont and HepG2 cytotoxicity data were loaded into CDD Vault for normalization, curve fitting, and EC50 calculations as described above. Receiver-operator characteristic (ROC) curves were generated using Graphpad Prism and area under the curve (AUC) was calculated using the Wilson/Brown method for both P. berghei liver schizont activity and HepG2 cytotoxicity.

Compound: C[C@H]1[C@H](OC(=O)CCC(=O)O)O[C@@H]2O[C@@]3(C)CC[C@H]4[C@H](C)CC[C@@H]1[C@@]24OO3 [Artesunate]
- EC50 [1]: > 16.6 µM
- EC50 [2]: > 16.6 µM

Compound: C[C@H]1[C@@H](O)O[C@@H]2O[C@@]3(C)CC[C@H]4[C@H](C)CC[C@@H]1[C@@]24OO3 [Artenimol (DHA), dihydroartemisinin]
- EC50 [1]: > 10 µM
- EC50 [2]: > 10 µM

Compound: Cc1cc(Nc2ccc(S(F)(F)(F)(F)F)cc2)n2nc(C(C)(F)F)nc2n1 [DSM265]
- EC50 [1]: 0.0112 µM
- EC50 [2]: 0.0166 µM

Compound: CCN(CC)CCCC(C)Nc1ccnc2cc(Cl)ccc12 (stereo not shown) [Chloroquine]
- EC50 [1]: > 10 µM
- EC50 [2]: > 10 µM

Compound: CO[C@H]1O[C@@H]2O[C@@]3(C)CC[C@H]4[C@H](C)CC[C@@H]([C@H]1C)[C@@]24OO3 [Artemether]
- EC50 [1]: > 37.2 µM
- EC50 [2]: > 1.07 µM

Compound: O=C1C(O)=C([C@H]2CC[C@H](c3ccc(Cl)cc3)CC2)C(=O)c2ccccc21 [Atovaquone]
- EC50 [1]: 0.017 µM
- EC50 [2]: 0.0214 µM

Compound: COc1cc(C)c2c(Oc3cccc(C(F)(F)F)c3)c(OC)cc(NC(C)CCCN)c2n1 (stereo not shown) [Tafenoquine]
- EC50 [1]: > 3.39 µM
- EC50 [2]: > 1.58 µM

Compound: Clc1ccc2c(N3CCN(CCCN4CCN(c5ccnc6cc(Cl)ccc56)CC4)CC3)ccnc2c1 [Piperaquine]
- EC50 [1]: > 5.75 µM
- EC50 [2]: > 5.25 µM

Compound: CC[C@H]1OC(=O)[C@H](C)[C@@H](O[C@H]2C[C@@](C)(OC)[C@@H](O)[C@H](C)O2)[C@H](C)[C@@H](O[C@@H]2O[C@H](C)C[C@H](N(C)C)[C@H]2O)[C@](C)(O)C[C@@H](C)CN(C)[C@H](C)[C@@H](O)[C@]1(C)O [Azithromycin]
- EC50 [1]: > 10 µM
- EC50 [2]: > 10 µM

Compound: COc1cc(NC(C)CCCN)c2ncccc2c1 (stereo not shown) [Primaquine]
- EC50 [1]: > 10 µM
- EC50 [2]: > 5.37 µM

Compound: Cn1ccnc1SCC(=O)Nc1ccc(C(=O)Nc2ncccc2O)cc1 [MMV1267536]
- inhibition of P. berghei liver schizonts in the primary screen ([3]; 44 h): 69.1%
- activity and selectivity in the primary screens ([3]; hit = > 80% inhibition of P. berghei and < 15% inhibition of HepG2): not considered hits
- HepG2 Cytotoxicity (pEC50 ± SD) (HepG2 cells): 4.83 ± 0.26
- EC50 ([4]; dose-response confirmation, FLAR, read-out: EC50 against P. berghei liver schizonts): 0.127 µM
- Activity (grouping in dose-response confirmation runs) ([4]; grouped as selectively active, active but with low selectivity, nonselective or inactive): active and selective

Compound: C[C@@H]1CC[C@H]2[C@@H](C)C(=O)O[C@@H]3O[C@@]4(C)CC[C@@H]1[C@]32OO4 [Artemisinin]
- EC50 [1]: > 50.1 µM
- EC50 [2]: > 50.1 µM

Compound: C[C@H]1Cc2c([nH]c3cc(Cl)c(F)cc23)[C@@]2(N1)C(=O)Nc1ccc(Cl)cc12 [Cipargamin]
- EC50 [1]: 0.00955 µM
- EC50 [2]: 0.0102 µM

Compound: CS(=O)(=O)c1ccc(-c2cnc(N)c(-c3ccc(C(F)(F)F)nc3)c2)cc1 [MMV390048]
- EC50 [1]: 0.0631 µM
- EC50 [2]: 0.0646 µM

Compound: c1cc([C@H]2CC[C@]3(CC2)OO[C@]2(O3)C3CC4CC(C3)CC2C4)ccc1OCCN1CCOCC1 [Artefenomel (OZ439), Artefenomel]
- EC50 [1]: > 1.23 µM
- EC50 [2]: > 28.8 µM

Compound: CC(C)(N)CNC(=O)C[C@H]1CC[C@]2(CC1)OO[C@]1(O2)C2CC3CC(C2)CC1C3 [Arterolane (OZ277), Arterolane]
- EC50 [1]: > 3.02 µM
- EC50 [2]: > 10 µM

Compound: CN(C)c1ccc2nc3ccc(=[N+](C)C)cc-3sc2c1 [Methylene Blue]
- EC50 [1]: 0.295 µM
- EC50 [2]: 0.219 µM

Compound: CCOc1ccccc1NC(=O)Cn1c(=O)n(Cc2ccccc2)c(=O)c2c(C)c(C(=O)N(C)C)sc21 [MMV006430]
- HepG2 Cytotoxicity (pEC50 ± SD) (HepG2 cells): 4.94 ± 0.06

Compound: COc1ncnc(NS(=O)(=O)c2ccc(N)cc2)c1OC [Sulfadoxine]
- EC50 [1]: > 10 µM
- EC50 [2]: > 10 µM

Compound: COc1cc(Cc2cnc(N)nc2N)cc(OC)c1OC [Trimethoprim]
- EC50 [1]: 1.74 µM
- EC50 [2]: 1.29 µM

Compound: CCc1nc(N)nc(N)c1-c1ccc(Cl)cc1 [Pyrimethamine]
- EC50 [1]: 0.0195 µM
- EC50 [2]: 0.0339 µM

Compound: CCCCN(CCCC)CC(O)c1cc(Cl)cc2c1-c1ccc(Cl)cc1/C2=C/c1ccc(Cl)cc1 (stereo not shown) [Lumefantrine]
- EC50 [1]: > 5.75 µM
- EC50 [2]: > 5.75 µM
